# Patent US20080044455A1, “Tonsillitus Treatment” (priority 2006, published 2008)
# Tested on: tonsils, throat and back of the mouth
# Assay: topical application of lactic acid (diluted in a liquid carrier such as juice) to tonsils, throat and back of the mouth
# Assay type: in vivo, human
# Description: In one aspect, a mixture of 10% by volume of pharmaceutical lactic acid is mixed with 90% by volume liquid carrier, such as juice, and the mixture is ingested 3 times a day for a month at a dosage of one teaspoon (approximately 0.005 liters) per application. After a two week pause, the patient is evaluated for the reduction in size of the tonsils. […] The number of applications per day can be reduced to two times a day, in the event that it is hard to implement with the patient, thus extending the duration of the treatment by 10 days.
# In one aspect, the mixture or solution is ingested, such as by repeatedly drinking, as at step 50, over a period of time such as a week, to topically apply the mixture or solution constituents to the surfaces of the tonsils, throat and/or mouth, at least twice, with a duration of time between the two applications.
structure (smiles),measurement,setting,value
"CC(O)C(=O)O (stereo not drawn) [lactic acid, Lactic Acid]",size of the tonsils,"topical application to tonsils, throat and mouth",reduction of the size of the tonsils
same,recurrence of the inflammation and infection causing the inflammation,"topical application, lactic acid diluted in a liquid carrier such as a juice",reduction in the recurrence of the inflammation and infection
same,inflammation and pain in the treated areas,"topical application, lactic acid diluted in a liquid carrier such as a juice, drunk or otherwise applied",reduction of both inflammation and pain in the treated areas
